Assay results as given in paper PMC11234063, “Eugenol and lidocaine inhibit voltage-gated Na^+ channels from dorsal root ganglion neurons with different mechanisms” (Frontiers in Pharmacology, 2024).
Values joined by “and” are separate entries in the source; they are usually repeats but may differ in a detail not shown here. Equal values may be shown once. Read-outs that look alike come from different tables or passages of the source.

Legend:
[1] = tested on: total INa (VGSCs of DRG neurons); conditions: EUG 2 mM, LID 1 mM
[2] = tested on: TTX-R INa (VGSCs of DRG neurons); assay type: cell-based, rat
[3] = tested on: total INa (VGSCs of DRG neurons); assay: Steady-state inactivation, 100-ms conditioning pre-pulses, total INa; assay type: cell-based, rat; conditions: EUG 2 mM, LID 1 mM
[4] = tested on: VGSCs; design: method as in Clarkson et al., 1988; Sheets et al., 2010; conditions: 10-s conditioning pulse; ref Clarkson et al., 1988; Sheets et al., 2010; cited from earlier work
[5] = tested on: total INa (VGSCs naturally expressed on dorsal root ganglion sensory neurons); assay: Dose–response inhibition of total INa peak, whole-cell patch clamp; assay type: cell-based, rat
[6] = tested on: total INa (VGSCs of DRG neurons); assay: Inhibition in depolarization time series at 2 and 5 Hz, total INa; assay type: cell-based, rat; conditions: EUG 2 mM, LID 1 mM
[7] = tested on: total INa (VGSCs of DRG neurons); assay: Slow inactivation entry, three-pulse protocol, total INa; assay type: cell-based, rat
[8] = tested on: total INa (VGSCs of DRG neurons); assay: Voltage dependence of Na+ conductance activation (I-V and G-V curves), total INa; assay type: cell-based, rat; conditions: EUG 2 mM, LID 1 mM
[9] = tested on: total INa (VGSCs of DRG neurons); assay: INa inactivation time constants during test pulse, total INa; assay type: cell-based, rat
[10] = tested on: TTX-R INa (VGSCs of DRG neurons); assay: Slow inactivation entry, three-pulse protocol, TTX-R INa; assay type: cell-based, rat
[11] = tested on: TTX-R INa (VGSCs of DRG neurons); assay type: cell-based, rat; remark: listed apart in the source
[12] = tested on: TTX-R INa (VGSCs of DRG neurons); assay type: cell-based, rat; conditions: EUG 2 mM, LID 1 mM
[13] = tested on: TTX-R INa (VGSCs of DRG neurons); assay type: cell-based, rat; conditions: EUG 2 mM, LID 1 mM; remark: listed apart in the source
[14] = tested on: TTX-R INa (VGSCs of DRG neurons); assay: Voltage dependence of Na+ conductance activation (I-V and G-V curves), TTX-R INa; assay type: cell-based, rat; conditions: EUG 2 mM, LID 1 mM
[15] = tested on: persistent total INa (DRG neurons); assay: Persistent total INa at the end of 50-ms depolarizing pulses; assay type: cell-based, rat; conditions: EUG 2 mM, LID 1 mM
[16] = individual cells, during exposure to EUG 2 mM or LID 1 mM

Compound: CCN(CC)CC(=O)Nc1c(C)cccc1C [LID, lidocaine]
- Time constant of the inhibiting effect increase with P1 duration at −70 mV [1]: 709 ms and ~700 ms
- Hill coefficient [2]: 0.67 ± 0.088
- Reversibility of inhibition after drug washout [2]: fully reversible
- Dose response curves' data, Average (fractional current) ([2]; drug at 0.01 mM): 0.82
- Dose response curves' data, Average (fractional current) ([2]; drug at 0.1 mM): 0.78
- Dose response curves' data, Average (fractional current) ([2]; drug at 0.3 mM): 0.55
- Dose response curves' data, Average (fractional current) ([2]; drug at 1 mM): 0.38
- Dose response curves' data, Average (fractional current) ([2]; drug at 3 mM): 0.26
- Dose response curves' data, Average (fractional current) ([2]; drug at 10 mM): 0.06
- Dose response curves' data, Average (fractional current) ([2]; drug at 30 mM): 0.00
- IC50 ([2]; holding −110 mV, test +20 mV, read-out: IC50): 440 ± 87 µM
- Time series of INa blockade, Average (normalized current) ([2]; time 15 sec, drug exposure): 0.700
- Time series of INa blockade, Average (normalized current) ([2]; time 20 sec, drug exposure): 0.688
- Time series of INa blockade, Average (normalized current) ([2]; time 25 sec, drug exposure): 0.698
- Time series of INa blockade, Average (normalized current) ([2]; time 30 sec, recovery): 0.954
- Time series of INa blockade, Average (normalized current) ([2]; time 35 sec, recovery): 0.981
- Time series of INa blockade, Average (normalized current) ([2]; time 40 sec, recovery): 1.000
- Shift of the steady-state inactivation curve, on average ([3]; 100-ms conditioning pulse): −5 mV
- Max slope-inact [3]: −10.2 ± 0.50 (n = 6) ns mV/e-fold
- V1/2-inact [3]: −50.6 ± 3.04 (n = 6) mV
- Max slope-inact in individual cells ([3]; individual cells): -10.01 mV/efold and -11.35 mV/efold and -9.163 mV/efold and -11.45 mV/efold and -10.7 mV/efold
- V1/2-inact in individual cells ([3]; individual cells): -42.62 mV and -59.61 mV and -54.7 mV and -48.47 mV and -56.32 mV
- Shift of the available curve [4]: 10 mV
- Pre-inhibition of total INa ([5]; LID at 0.5 mM): 25%
- Reversibility of inhibition after drug washout ([5]; total INa): fully reversible
- Dose response curves' data, Average (fractional current), LID (EUG 1.3 mM) ([5]; total INa, LID 0.1 mM in the presence of EUG 1.3 mM): 0.98
- Dose response curves' data, Average (fractional current), LID (EUG 1.3 mM) ([5]; total INa, LID 0.3 mM in the presence of EUG 1.3 mM): 0.63
- Dose response curves' data, Average (fractional current), LID (EUG 1.3 mM) ([5]; total INa, LID 1 mM in the presence of EUG 1.3 mM): 0.45
- Dose response curves' data, Average (fractional current), LID (EUG 1.3 mM) ([5]; total INa, LID 3 mM in the presence of EUG 1.3 mM): 0.19
- Dose response curves' data, Average (fractional current), LID (EUG 1.3 mM) ([5]; total INa, LID 10 mM in the presence of EUG 1.3 mM): 0.08
- Hill coefficient ([5]; total INa, drug alone): 1 and 1.02 ± 0.169
- Dose response curves' data, Average (fractional current) ([5]; total INa, drug at 0.001 mM): 1.00
- Dose response curves' data, Average (fractional current) ([5]; total INa, drug at 0.03 mM): 0.95
- Dose response curves' data, Average (fractional current) ([5]; total INa, drug at 0.1 mM): 0.89
- Dose response curves' data, Average (fractional current) ([5]; total INa, drug at 0.3 mM): 0.79
- Dose response curves' data, Average (fractional current) ([5]; total INa, drug at 1 mM): 0.67
- Dose response curves' data, Average (fractional current) ([5]; total INa, drug at 3 mM): 0.29
- Dose response curves' data, Average (fractional current) ([5]; total INa, drug at 10 mM): 0.09
- IC50 ([5]; total INa, holding −110 mV, test +20 mV, drug alone, read-out: IC50): 1420 ± 169 µM
- Time series of INa blockade, Average (normalized current) ([5]; total INa, time 15 sec, drug exposure): 0.63
- Time series of INa blockade, Average (normalized current) ([5]; total INa, time 20 sec, drug exposure): 0.63
- Time series of INa blockade, Average (normalized current) ([5]; total INa, time 25 sec, drug exposure): 0.63
- Time series of INa blockade, Average (normalized current) ([5]; total INa, time 30 sec, recovery): 0.99
- Time series of INa blockade, Average (normalized current) ([5]; total INa, time 35 sec, recovery): 1.01
- Time series of INa blockade, Average (normalized current) ([5]; total INa, time 40 sec, recovery): 1.01
- Fractional inhibition, 2 Hz, 1st pulse [6]: 0.46 ± 0.034 (n = 7)
- Fractional inhibition, 2 Hz, 20th pulse [6]: 0.54 ± 0.044 (n = 7)
- Fractional inhibition, 5 Hz, 1st pulse [6]: 0.47 ± 0.021 (n = 5)
- Fractional inhibition, 5 Hz, 20th pulse [6]: 0.81 ± 0.055 (n = 5)
- Fractional current after blockade, 2 Hz, 1st pulse, individual cells ([6]; individual cells): 0.42 and 0.6 and 0.65 and 0.46 and 0.55 and 0.48 and 0.66
- Fractional current after blockade, 2 Hz, 20th pulse, individual cells ([6]; individual cells): 0.57 and 0.34 and 0.45 and 0.42 and 0.58 and 0.31 and 0.51
- Fractional current after blockade, 5 Hz, 1st pulse, individual cells ([6]; individual cells): 0.73 and 0.48 and 0.51 (2×) and 0.60
- Fractional current after blockade, 5 Hz, 20th pulse, individual cells ([6]; individual cells): 0.53 and 0.06 and 0.07 and 0.25 and 0.26
- Fast inactivation entry time constant ([7]; EUG 2 mM, LID 1 mM): 25.04 ± 10.996 ms
- Fractional current when P1 = 2 m ([7]; EUG 2 mM, LID 1 mM): 0.62 ± 0.067
- Percent fast component (slow inactivation entry) ([7]; EUG 2 mM, LID 1 mM): 59.86 ± 4.320 %
- Slow inactivation entry time constant ([7]; EUG 2 mM, LID 1 mM): 292.87 ± 117.879 s
- Slow inactivation state entry kinetics of INa, individual cells [7, 16]: 84.13 and 39.12 and 7.878 and 39.45 and 54.65
- Max slope-act [8]: 5.4 ± 0.55 (n = 5) mV/e-fold
- V1/2-act [8]: −15.6 ± 1.87 (n = 5) ns mV
- Max slope-act in individual cells ([8]; individual cells): 3.305 mV/efold and 5.718 mV/efold and 5.241 mV/efold and 6.129 mV/efold and 6.443 mV/efold
- V1/2-act in individual cells ([8]; individual cells): -10.84 mV and -17.68 mV and -19.58 mV and -11.29 mV and -18.64 mV
- Effect on inactivation time constants [9]: unaffected
- Fast inactivation entry time constant ([10]; EUG 2 mM, LID 1 mM): 33.05 ± 11.57 ms
- Fractional current when P1 = 2 m ([10]; EUG 2 mM, LID 1 mM): 0.76 ± 0.049
- Percent fast component (slow inactivation entry) ([10]; EUG 2 mM, LID 1 mM): 35.03 ± 6.913%
- Slow inactivation entry time constant ([10]; EUG 2 mM, LID 1 mM): 287.01 ± 49.765 s
- Slow inactivation state entry kinetics of INa, individual cells [10, 16]: 210.90 and 156.80 and 90.580 and 123.40 and 113.30
- Effect on inactivation time constants [11]: unaffected
- Fractional inhibition, 2 Hz, 1st pulse [12]: 0.40 ± 0.025 (n = 8)
- Fractional inhibition, 2 Hz, 20th pulse [12]: 0.55 ± 0.040 (n = 8)
- Fractional inhibition, 5 Hz, 1st pulse [12]: 0.37 ± 0.027 (n = 7)
- Fractional inhibition, 5 Hz, 20th pulse [12]: 0.64 ± 0.054 (n = 7)
- Fractional current after blockade, 2 Hz, 1st pulse, individual cells ([12]; individual cells): 0.58 and 0.49 and 0.64 and 0.53 and 0.56 and 0.59 and 0.67 and 0.68
- Fractional current after blockade, 2 Hz, 20th pulse, individual cells ([12]; individual cells): 0.3 (2×) and 0.5 and 0.51 and 0.46 and 0.57 and 0.50 and 0.41
- Fractional current after blockade, 5 Hz, 1st pulse, individual cells ([12]; individual cells): 0.55 and 0.51 and 0.68 (2×) and 0.62 and 0.69
- Fractional current after blockade, 5 Hz, 20th pulse, individual cells ([12]; individual cells): 0.18 and 0.15 and 0.34 and 0.50 and 0.42
- Shift of the steady-state inactivation curve, on average ([13]; 100-ms conditioning pulse): −4 mV
- Max slope-inact [13]: −7.2 ± 1.24 (n = 9) ns mV/e-fold
- V1/2-inact [13]: −32.6 ± 2.86 (n = 9) mV
- Max slope-inact in individual cells ([13]; individual cells): -4.454 mV/efold and -5.078 mV/efold and -4.311 mV/efold and -4.855 mV/efold and -12.65 mV/efold and -5.321 mV/efold and -10.59 mV/efold and -13.14 mV/efold and -5.017 mV/efold
- V1/2-inact in individual cells ([13]; individual cells): -13.3 mV and -32.45 mV and -43.07 mV and -41.77 mV and -33.88 mV and -29.54 mV and -30.3 mV and -34.82 mV and -34 mV
- Max slope-act [14]: 7.6 ± 0.84 (n = 9) mV/e-fold
- V1/2-act [14]: −15.3 ± 3.51 (n = 9) ns mV
- Max slope-act in individual cells ([14]; individual cells): 2.416 mV/efold and 6.095 mV/efold and 7.402 mV/efold and 6.184 mV/efold and 9.974 mV/efold and 8.405 mV/efold and 10.98 mV/efold and 7.92 mV/efold and 8.84 mV/efold
- V1/2-act in individual cells ([14]; individual cells): 2.959 mV and -9.166 mV and -6.571 mV and -19.84 mV and -6.716 mV and -25.02 mV and -21.81 mV and -25.87 mV and -25.3 mV
- Inhibition of persistent total INa after 50-ms depolarization [15]: fails to inhibit
